Like-named read-outs stand apart in the source and are kept apart here.
Columns and labels:
[1] = tested on: Smn protein; experiment: Smn protein assay in cultured cells (SMN HTRF); type: cell-based, human; details: 48 hours; for maximum fold (Fold) increase of Smn protein: SMA patient fibroblast cells, 7-point concentration data, fold increase relative to vehicle control (SMN HTRF); for EC1.5x (concentration giving 1.5-fold Smn protein increase): SMA Type 1 patient fibroblast cells (GM03813), 7-point concentration curve, SMN HTRF, concentration producing 1.5 times Smn protein vs DMSO vehicle control, read-out: EC1.5x for Smn protein expression
Procedure, shortened: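 Lysates in RIPA with protease inhibitors are incubated overnight at room temperature with HTRF anti-SMN antibodies. EC1.5x is derived from fold increase in ΔF over vehicle.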

[2] = tested on: SMN2 minigene (full length SMN2 minigene mRNA containing SMN2 exon 7); experiment: SMN2 minigene mRNA splicing RT-qPCR assay in cultured cells; type: cell-based, human; details: Homo sapiens, HEK293-H, read-out: EC1.5x for production of full length SMN2 mRNA
Procedure, shortened: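 Read-out: full-length (exon 7-included) SMN2 minigene mRNA by multiplex RT-qPCR with GAPDH, efficiency-corrected (1+E)^−Ct, GAPDH-normalized and divided by vehicle. Stably transfected HEK293H cells, 24 h compound exposure, duplicates per concentration. Value is EC1.5x, reported as star ranges.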

[3] = HEK293H cells stably transfected with SMN2-A minigene, 24 hours, 7-point concentration curve, 1.5-fold relative to vehicle-treated cells

Row | melting point | Structure (SMILES) | maximum fold (Fold) increase of Smn protein [1] | EC (1.5-fold) [2, 3] [µM] | EC1.5x (concentration giving 1.5-fold Smn protein increase) [1] [nM] | EC (1.5-fold) ([2]; 24 h) [µM]
1 | 253 to 255 °C | CN1CCN(c2ccc3cc(-c4cn5cnccc5n4)c(=O)oc3c2)CC1 [Cpd 458, 3-(imidazo[1,2-c]pyrimidin-2-yl)-7-(4-methylpiperazin-1-yl)-2H-chromen-2-one] | *** (fold increase between >1.35 and ≤1.5) | 0.3 to 1 | – | –
2 | 218 to 221 °C | Cc1cn2cc(-c3cc4ccc(N5CCN6CCCCC6C5)cc4oc3=O)cc2cn1 (stereo not shown) [Compound 646, 3-(3-methylpyrrolo[1,2-a]pyrazin-7-yl)-7-(octahydro-2H-pyrido[1,2-a]pyrazin-2-yl)-2H-chromen-2-one] | **** (fold increase between >1.5 and ≤1.65) | < 0.1 | < 300 | –
3 | 109 to 111 °C | COc1c(F)cc(F)cc1-c1cc2ccc(N3CCNCC3)cc2oc1=O [Compound 538, 3-(3,5-difluoro-2-methoxyphenyl)-7-(piperazin-1-yl)-2H-chromen-2-one] | * (maximum fold increase of ≤1.2) | 3 to 30 | – | –
4 | 253 to 255 °C | Cc1cn2cc(-c3cc4ccc(N5CCCN(C)CC5)cc4oc3=O)nc2c(C)n1 [Compound 519, 3-(6,8-dimethylimidazo[1,2-a]pyrazin-2-yl)-7-(4-methyl-1,4-diazepan-1-yl)-2H-chromen-2-one] | ***** (fold increase >1.65) | < 0.1 | < 300 | –
5 | 236 °C | Cc1ccn2cc(-c3cc4ccc(N5CCCNCC5)cc4oc3=O)nc2c1 [Compound 216, 7-(1,4-diazepan-1-yl)-3-(7-methylimidazo[1,2-a]pyridin-2-yl)-2H-chromen-2-one] | *** (fold increase between >1.35 and ≤1.5) | 0.3 to 1 | – | –
6 | 273 to 276 °C | Cc1cn2cc(-c3cc4ccc(N5CCN(C6COC6)CC5)cc4oc3=O)nc2cn1 [Compound 839, 3-(6-methylimidazo[1,2-a]pyrazin-2-yl)-7-[4-(oxetan-3-yl)piperazin-1-yl]-2H-chromen-2-one] | **** (fold increase between >1.5 and ≤1.65) | 0.1 to 0.3 | 300 to 1000 | –
7 | 255 to 263 °C | Cc1cn2cc(-c3cc4ccc(N5C[C@H]6CCN(C)[C@H]6C5)cc4oc3=O)nc2c(C)n1 [Compound 704, 3-(6,8-dimethylimidazo[1,2-a]pyrazin-2-yl)-7-[(3aR,6aR)-1-methylhexahydropyrrolo[3,4-b]pyrrol-5(1H)-yl]-2H-chromen-2-one] | **** (fold increase between >1.5 and ≤1.65) | < 0.1 | < 300 | –
8 | 198 to 202 °C | CN1CCN(c2ccc3cc(-c4cn5cccc(C6CC6)c5n4)c(=O)oc3c2)CC1 [Compound 244, 3-(8-cyclopropylimidazo[1,2-a]pyridin-2-yl)-7-(4-methylpiperazin-1-yl)-2H-chromen-2-one] | * (maximum fold increase of ≤1.2) | 0.3 to 1 | – | –
9 | 234 to 236 °C | C[C@@H]1CN(c2ccc3cc(-c4cnc5ccccc5n4)c(=O)oc3c2)C[C@H](C)N1 [Compound 461, 7-[(3R,5S)-3,5-dimethylpiperazin-1-yl]-3-(quinoxalin-2-yl)-2H-chromen-2-one] | * (maximum fold increase of ≤1.2) | 3 to 30 | – | –
10 | 196 to 202 °C | Cc1cn2cc(-c3cc4ccc(O[C@@H]5CCN(C(C)CO)C5)cc4oc3=O)nc2c(C)n1 (stereo partly drawn) [Compound 893, 3-(6,8-dimethylimidazo[1,2-a]pyrazin-2-yl)-7-{[(3R)-1-(1-hydroxypropan-2-yl)pyrrolidin-3-yl]oxy}-2H-chromen-2-one] | ***** (fold increase >1.65) | < 0.1 | < 300 | –
11 | 203 to 210 °C | CCc1cc(C)cn2cc(-c3cc4ccc(N5CCN(C)CC5)cc4oc3=O)nc12 [Compound 340, 3-(8-ethyl-6-methylimidazo[1,2-a]pyridin-2-yl)-7-(4-methylpiperazin-1-yl)-2H-chromen-2-one] | * (maximum fold increase of ≤1.2) | 0.3 to 1 | – | –
12 | 268 to 270 °C | CN1CCN(c2ccc3cc(-c4cn5cc(Cl)sc5n4)c(=O)oc3c2)CC1 [Compound 478, 3-(2-chloroimidazo[2,1-b][1,3]thiazol-6-yl)-7-(4-methylpiperazin-1-yl)-2H-chromen-2-one] | * (maximum fold increase of ≤1.2) | 0.3 to 1 | – | –
13 | 212 to 215 °C | Cc1ccc2nc(-c3cc4ccc(N5C[C@@H]6C[C@H]5CN6)cc4oc3=O)cn2c1 [Compound 173, 7-[(1S,4S)-2,5-diazabicyclo[2.2.1]hept-2-yl]-3-(6-methylimidazo[1,2-a]pyridin-2-yl)-2H-chromen-2-one] | ** (fold increase between >1.2 and ≤1.35) | 0.3 to 1 | – | –
14 | 155 to 158 °C | COc1cccc(-c2cc3ccc(N4CCCN(C)CC4)cc3oc2=O)n1 [Compound 359, 3-(6-methoxypyridin-2-yl)-7-(4-methyl-1,4-diazepan-1-yl)-2H-chromen-2-one] | * (maximum fold increase of ≤1.2) | 3 to 30 | – | –
15 | 190 to 192 °C | O=c1oc2cc(N3CCNCC3)ccc2cc1-c1cccc(N2CCCC2)n1 [Cpd 386, 7-(piperazin-1-yl)-3-[6-(pyrrolidin-1-yl)pyridin-2-yl]-2H-chromen-2-one] | * (maximum fold increase of ≤1.2) | 3 to 30 | – | –
16 | 229 to 232 °C | Cc1ccc2nc(-c3cc4ccc(N5CCNCC5)cc4oc3=O)cn2c1 [Compound 51, 3-(6-methylimidazo[1,2-a]pyridin-2-yl)-7-(piperazin-1-yl)-2H-chromen-2-one] | ***** (fold increase >1.65) | 0.1 to 0.3 | < 300 | –
17 | 192 to 194 °C | C[C@H]1CN(c2ccc3cc(-c4cc5ccccc5o4)c(=O)oc3c2)CCN1 [Compound 603, 3-(1-benzofuran-2-yl)-7-[(3S)-3-methylpiperazin-1-yl]-2H-chromen-2-one] | * (maximum fold increase of ≤1.2) | 0.3 to 1 | – | –
18 | 170 to 173 °C | Cc1nccn2cc(-c3cc4ccc(N5CCN6CCC[C@@H]6C5)cc4oc3=O)cc12 [Compound 636, 7-[(8aR)-hexahydropyrrolo[1,2-a]pyrazin-2(1H)-yl]-3-(1-methylpyrrolo[1,2-a]pyrazin-7-yl)-2H-chromen-2-one] | ** (fold increase between >1.2 and ≤1.35) | < 0.1 | – | –
19 | 195 to 200 °C | Cc1cn2cc(-c3cc4ccc(C5CCN(CCCF)CC5)cc4oc3=O)nc2c(C)n1 [Compound 906, 3-(6,8-dimethylimidazo[1,2-a]pyrazin-2-yl)-7-[1-(3-fluoropropyl)piperidin-4-yl]-2H-chromen-2-one] | ***** (fold increase >1.65) | < 0.1 | < 300 | –
20 | 265 to 268 °C | CN1CCN(c2ccc3cc(-c4cn5ccccc5n4)c(=O)oc3c2)CC1 [Compound 72, 3-(imidazo[1,2-a]pyridin-2-yl)-7-(4-methylpiperazin-1-yl)-2H-chromen-2-one] | *** (fold increase between >1.35 and ≤1.5) | 0.3 to 1 | 300 to 1000 | –
21 | 240 °C (dec.) | COc1ccc(-c2cc3c(F)cc(N4CCNCC4)cc3oc2=O)cc1OC [Compound 404, 3-(3,4-dimethoxyphenyl)-5-fluoro-7-(piperazin-1-yl)-2H-chromen-2-one] | **** (fold increase between >1.5 and ≤1.65) | 0.3 to 1 | 1000 to 3000 | –
22 | 286 °C (dec.) | C[C@@H]1CN(c2ccc3cc(-c4cn5cccc(Cl)c5n4)c(=O)oc3c2)C[C@H](C)N1 [Compound 120, 3-(8-chloroimidazo[1,2-a]pyridin-2-yl)-7-[(3R,5S)-3,5-dimethylpiperazin-1-yl]-2H-chromen-2-one] | **** (fold increase between >1.5 and ≤1.65) | < 0.1 | < 300 | –
23 | 211 to 220 °C | O=c1oc2cc(N3C[C@@H]4C[C@H]3CN4)ccc2cc1-c1nc(C(F)(F)F)cs1 [Compound 266, 7-[(1S,4S)-2,5-diazabicyclo[2.2.1]hept-2-yl]-3-[4-(trifluoromethyl)-1,3-thiazol-2-yl]-2H-chromen-2-one] | * (maximum fold increase of ≤1.2) | 1 to 3 | – | –

Row | Structure (SMILES) | melting point | maximum fold (Fold) increase of Smn protein [1] | EC (1.5-fold) [2, 3] [µM] | EC1.5x (concentration giving 1.5-fold Smn protein increase) [1] [nM] | EC (1.5-fold) ([2]; 24 h) [µM]
24 | O=c1oc2cc(N3CCNCC3)ccc2cc1-c1ccnc(Cl)c1 [Compound 180, 3-(2-chloropyridin-4-yl)-7-(piperazin-1-yl)-2H-chromen-2-one] | 190 to 192 °C | * (maximum fold increase of ≤1.2) | – | – | < 0.1

From patent publication USRE47689E1, “Compounds for treating spinal muscular atrophy” (PTC Therapeutics, Inc., priority 2011, dated 2019)
